Read-outs that look alike come from different tables or passages of the source.
Tests used:
Experiment in all cases: Test C pre/postemergence
Format in all cases: in vivo
[1] = test system: eastern black nightshade (Solanum ptycanthum); details: Solanum, pre-emergence, Preemergence, read-out: Plant response rating, Nightshade
In short: (§1)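 Greenhouse herbicide screen, visual readout. Compound in solvent/surfactant applied preemergence at planting or postemergence to 1- to 4-leaf plants; assessed at 12–14 days on a 0–100 control scale.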

[2] = test system: johnsongrass (Sorghum halepense); details: Sorghum halepense; for pest or weed control at 31 g/ha: 31 g ai/ha; for pest or weed control at 62 g/ha: 62 g ai/ha; for pest or weed control at 125 g/ha: 125 g ai/ha; for pest or weed control at 250 g/ha: 250 g ai/ha
In short: as §1

kochia (Kochia scoparia) = details: Bassia scoparia; for pest or weed control at 31 g/ha: 31 g ai/ha; for pest or weed control at 62 g/ha: 62 g ai/ha; for pest or weed control at 125 g/ha: 125 g ai/ha; for pest or weed control at 250 g/ha: 250 g ai/ha
In short: as §1

[3] = test system: morningglory (Ipomoea coccinea); details: Ipomoea; for pest or weed control at 31 g/ha: 31 g ai/ha; for pest or weed control at 62 g/ha: 62 g ai/ha; for pest or weed control at 125 g/ha: 125 g ai/ha; for pest or weed control at 250 g/ha: 250 g ai/ha
In short: as §1

[4] = test system: pigweed (Amaranthus retroflexus); details: Amaranthus retroflexus; for pest or weed control at 31 g/ha: 31 g ai/ha; for pest or weed control at 62 g/ha: 62 g ai/ha; for pest or weed control at 125 g/ha: 125 g ai/ha; for pest or weed control at 250 g/ha: 250 g ai/ha
In short: as §1

[5] = test system: woolly cupgrass (Eriochloa villosa); details: Eriochloa villosa; for pest or weed control at 31 g/ha: 31 g ai/ha; for pest or weed control at 62 g/ha: 62 g ai/ha; for pest or weed control at 125 g/ha: 125 g ai/ha; for pest or weed control at 250 g/ha: 250 g ai/ha
In short: as §1

[6] = post-emergence, Postemergence, scale 0 to 100 (0 no effect, 100 complete control), read-out: Johnsongrass plant response rating
[7] = pre-emergence, Preemergence, scale 0 to 100, 0 no effect, 100 complete control, read-out: Plant response rating, Johnsongrass
[8] = pre-emergence, Preemergence, scale 0 to 100, read-out: Plant response rating, Johnsongrass
[9] = post-emergence, Postemergence, scale 0 to 100 (0 no effect, 100 complete control), read-out: Kochia plant response rating
[10] = pre-emergence, Preemergence, scale 0 to 100, 0 no effect, 100 complete control, read-out: Plant response rating, Kochia
[11] = pre-emergence, Preemergence, scale 0 to 100, read-out: Plant response rating, Kochia
[12] = post-emergence, Postemergence, scale 0 to 100 (0 no effect, 100 complete control), read-out: Morningglory plant response rating
[13] = pre-emergence, Preemergence, scale 0 to 100, 0 no effect, 100 complete control, read-out: Plant response rating, Morningglory
[14] = pre-emergence, Preemergence, scale 0 to 100, read-out: Plant response rating, Morningglory
[15] = post-emergence, Postemergence, scale 0 to 100 (0 no effect, 100 complete control), read-out: Pigweed plant response rating
[16] = pre-emergence, Preemergence, scale 0 to 100, 0 no effect, 100 complete control, read-out: Plant response rating, Pigweed
[17] = pre-emergence, Preemergence, scale 0 to 100, read-out: Plant response rating, Pigweed
[18] = post-emergence, Postemergence, scale 0 to 100 (0 no effect, 100 complete control), read-out: Cupgrass, Woolly plant response rating
[19] = pre-emergence, Preemergence, scale 0 to 100, 0 no effect, 100 complete control, read-out: Plant response rating, Cupgrass, Woolly
[20] = pre-emergence, Preemergence, scale 0 to 100, read-out: Plant response rating, Cupgrass, Woolly

With `COC(=O)c1nc(C2CC2)nc(N)c1Br` [Compound 2, methyl 6-amino-5-bromo-2-cyclopropyl-4-pyrimidinecarboxylate] the pest or weed control at 62 g/ha ([1]; 62 g ai/ha, scale 0 to 100, 0 no effect, 100 complete control) was 20%, the pest or weed control at 125 g/ha ([1]; 125 g ai/ha, scale 0 to 100) was 100% and the pest or weed control at 250 g/ha ([1]; 250 g ai/ha, scale 0 to 100) was 100%. It also gave a pest or weed control at 31 g/ha ([2]; post-emergence, Postemergence, read-out: Plant response rating (scale of 0 to 100), Johnsongrass) of 0%, a pest or weed control at 62 g/ha [2, 6] of 0% and a pest or weed control at 125 g/ha [2, 6] of 25%. It also gave a pest or weed control at 250 g/ha ([2]; post-emergence, Postemergence, scale 0 to 100, read-out: Plant response rating, Johnsongrass) of 60%, a pest or weed control at 31 g/ha [2, 7] of 0% and a pest or weed control at 62 g/ha [2, 7] of 0%. It also gave a pest or weed control at 125 g/ha [2, 8] of 0%, a pest or weed control at 250 g/ha [2, 8] of 40% and a pest or weed control at 31 g/ha (kochia (Kochia scoparia); post-emergence, Postemergence, read-out: Plant response rating (scale of 0 to 100), Kochia) of 85%. It also gave a pest or weed control at 62 g/ha (kochia (Kochia scoparia); [9]) of 95%, a pest or weed control at 125 g/ha (kochia (Kochia scoparia); [9]) of 95% and a pest or weed control at 250 g/ha (kochia (Kochia scoparia); post-emergence, Postemergence, scale 0 to 100, read-out: Plant response rating, Kochia) of 100%. It also gave a pest or weed control at 31 g/ha (kochia (Kochia scoparia); [10]) of 75%, a pest or weed control at 62 g/ha (kochia (Kochia scoparia); [10]) of 90% and a pest or weed control at 125 g/ha (kochia (Kochia scoparia); [11]) of 95%. The pest or weed control at 250 g/ha (kochia (Kochia scoparia); [11]) was 100%, the pest or weed control at 31 g/ha ([3]; post-emergence, Postemergence, read-out: Plant response rating (scale of 0 to 100), Morningglory) was 70% and the pest or weed control at 62 g/ha [3, 12] was 75%. The pest or weed control at 125 g/ha [3, 12] was 100%, the pest or weed control at 250 g/ha ([3]; post-emergence, Postemergence, scale 0 to 100, read-out: Plant response rating, Morningglory) was 100% and the pest or weed control at 31 g/ha [3, 13] was 100%. The pest or weed control at 62 g/ha [3, 13] was 100%, the pest or weed control at 125 g/ha [3, 14] was 100% and the pest or weed control at 250 g/ha [3, 14] was 100%. It also gave a pest or weed control at 31 g/ha ([4]; post-emergence, Postemergence, read-out: Plant response rating (scale of 0 to 100), Pigweed) of 65%, a pest or weed control at 62 g/ha [4, 15] of 80% and a pest or weed control at 125 g/ha [4, 15] of 95%. For the same molecule, the pest or weed control at 250 g/ha ([4]; post-emergence, Postemergence, scale 0 to 100, read-out: Plant response rating, Pigweed) was 100%, the pest or weed control at 31 g/ha [4, 16] was 90% and the pest or weed control at 62 g/ha [4, 16] was 95%. For the same molecule, the pest or weed control at 125 g/ha [4, 17] was 95%, the pest or weed control at 250 g/ha [4, 17] was 100% and the pest or weed control at 31 g/ha ([5]; post-emergence, Postemergence, read-out: Plant response rating (scale of 0 to 100), Cupgrass, Woolly) was 40%. For the same molecule, the pest or weed control at 62 g/ha [5, 18] was 60%, the pest or weed control at 125 g/ha [5, 18] was 70% and the pest or weed control at 250 g/ha ([5]; post-emergence, Postemergence, scale 0 to 100, read-out: Plant response rating, Cupgrass, Woolly) was 75%. For the same molecule, the pest or weed control at 31 g/ha [5, 19] was 0%, the pest or weed control at 62 g/ha [5, 19] was 0% and the pest or weed control at 125 g/ha [5, 20] was 0%. The pest or weed control at 250 g/ha [5, 20] was 45%.

Source: patent publication US8802597B2, “Herbicidal pyrimidines” (E I du Pont de Nemours and Company, priority 2003, dated 2014)
